The target of one test is T1, γ-secretase (Homo sapiens, UniProt P49768).
T1 construct: endogenous in cells; host or cells: SKNBE2 cells carrying APP 695 wild type
The experiment in a line: Screening for γ-secretase-modulating activity in SKNBE2 cells carrying the APP 695 wild type. Type of test: cell-based. Particulars: 0.3 μM; SKNBE2 cells carrying APP 695 wild type. As for the experimental part:
Screening of the Compounds of the Invention for γ-Secretase-Modulating Activity
Screening was carried out using SKNBE2 cells carrying the APP 695—wild type, grown in DMEM/NUT-mix F12 (HAM) provided by Gibco (cat no. 31330-38) containing 5% Serum/Fe supplemented with 1% non-essential amino acids.
Cells were grown to near confluency.
The screening was performed using the assay as described in Citron et al (1997) Nature Medicine 3: 67.
With “2-(5-(2,4-difluorobenzylamino)-4′-(trifluoromethyl)biphenyl-3-yl)-4-methyl pentanoic acid [Compound 52]”, the “inhibition @ 0.3 μM” value turned out to be 0% inhi- bition @ 0.3 μM.

As to `CC(C)CC(C(=O)O)c1cc(-c2ccc(C(F)(F)F)cc2)cc(N2CCCc3ccccc32)c1` (stereo not drawn) [Compound 28, 2-[5-(3,4-Dihydro-2H-quinolin-1-yl)-4′-trifluoromethyl-biphenyl-3-yl]-4-methyl-pentanoic acid], at 0.3 µM the inhibition was 0%.

With `CC(C)CCC(Nc1cc(CC(=O)O)cc(-c2ccc(C(F)(F)F)cc2)c1)c1ccc(C(F)(F)F)cc1` (stereo not drawn) [Compound 32], the inhibition at 0.3 µM worked out at 25%.

With `CC(C)CCC(Nc1cc(CC(=O)O)cc(-c2ccc(C(F)(F)F)cc2)c1)c1cc(F)cc(F)c1` (stereo not drawn) [Compound 33], the inhibition at 0.3 µM worked out at 11%.

In the case of `CC(C)CC(C(=O)O)c1cc(NC2CCCc3ccccc32)cc(-c2ccc(C(F)(F)F)cc2)c1` (stereo not drawn) [Compound 34, 4-Methyl-2-[5-(1,2,3,4-tetrahydro-naphthalen-1-ylamino)-4′-trifluoromethyl-biphenyl-3-yl]-pentanoic acid], the inhibition at 0.3 µM stood at 22%.

Take `CC(C)CC(C(=O)O)c1cc(NCc2ccc(C(C)(C)C)cc2)cc(-c2ccc(C(F)(F)F)cc2)c1` (stereo not drawn) [Compound 37, 2-[5-(4-tert-Butyl-benzylamino)-4′-trifluoromethyl-biphenyl-3-yl]-4-methyl-pentanoic acid]: the inhibition at 0.3 µM came out at 18%.

In turn, `CC(C)C[C@@H](C(=O)O)c1cc(NCc2ccc(OC(F)(F)F)cc2)cc(-c2ccc(C(F)(F)F)cc2)c1` [Compound 41, 4-Methyl-2-[5-(4-trifluoromethoxy-benzylamino)-4′-trifluoromethyl-biphenyl-3-yl]-pentanoic acid] showed an inhibition at 0.3 µM of 0%.

Regarding `CC(C)C[C@@H](C(=O)O)c1cc(NCc2cc(F)cc(F)c2)cc(-c2ccc(C(F)(F)F)cc2)c1` [Compound 43, (R) 2-[5-(3,5-Difluoro-benzylamino)-4′-trifluoromethyl-biphenyl-3-yl]-4-methyl-pentanoic acid], at 0.3 µM the inhibition was 0%.

For `CC(C)C[C@@H](C(=O)O)c1cc(NCc2ccc(C(F)(F)F)cc2)cc(-c2ccc(C(F)(F)F)cc2)c1` [Compound 44, (R) 4-Methyl-2-[4′-trifluoromethyl-5-(4-trifluoromethyl-benzylamino)-biphenyl-3-yl]-pentanoic acid], the inhibition at 0.3 µM is 7%.

In turn, `CC(C)C[C@@H](C(=O)O)c1cc(NCc2cc(C(F)(F)F)cc(C(F)(F)F)c2)cc(-c2ccc(C(F)(F)F)cc2)c1` [Compound 46, (R) 2-[5-(3,5-Bis-trifluoromethyl-benzylamino)-4′-trifluoromethyl-biphenyl-3-yl]-4-methyl-pentanoic acid] yielded an inhibition at 0.3 µM of 6%.

In the case of `CC(C)C[C@@H](C(=O)O)c1cc(NCc2ccc(C#N)cc2)cc(-c2ccc(C(F)(F)F)cc2)c1` [Compound 47, (R) 2-[5-(4-Cyano-benzylamino)-4′-trifluoromethyl-biphenyl-3-yl]-4-methyl-pentanoic acid], the inhibition at 0.3 µM worked out at 0%.

`CC(C)CCN(Cc1ccc(C#N)cc1)c1cc(-c2ccc(C(F)(F)F)cc2)cc([C@@H](CC(C)C)C(=O)O)c1` [Compound 48, (R) 2-{5-[(4-Cyano-benzyl)-(3-methyl-butyl)-amino]-4′-trifluoromethyl-biphenyl-3-yl}-4-methyl-pentanoic acid] displayed an inhibition at 0.3 µM of 31%.

The compound `CC(C)CCC(c1cc(F)cc(F)c1)N(C)c1cc(-c2ccc(C(F)(F)F)cc2)cc(C(CC(C)C)C(=O)O)c1` (stereo not drawn) [Compound 50, 2-(5-{[1-(3,5-Difluoro-phenyl)-4-methyl-pentyl]-methyl-amino}-4′-trifluoromethyl-biphenyl-3-yl)-4-methyl-pentanoic acid] came in with an inhibition at 0.3 µM of 65%.

As to `CC(C)CC(C(=O)O)c1cc(-c2ccc(C(F)(F)F)cc2)cc(N2CCc3ccccc3C2)c1` (stereo not drawn) [Compound 53, 4-Methyl-2-[-5-(3,4-dihydroisoquinolin-2(1H)-yl)-4′-(trifluoromethyl)biphenyl-3-yl]-pentanoic acid], the inhibition at 0.3 µM was found to be 0%.

The test is the same for the next values; noted with them: SKNBE2 cells carrying APP 695 wild type.
The compound `CC(C)CC(C(=O)O)c1cc(-c2ccc(C(F)(F)F)cc2)cc(N(C)c2ccc(Cl)cc2)c1` (single isomer, unassigned) [Example 21, (R*)2-{5-[(4-Chloro-phenyl)-methyl-amino]-4′-trifluoromethyl-biphenyl-3-yl}-4-methyl-pentanoic acid] had an EC50 of 1130 nM. That is a single-digit micromolar value.

In the case of `CC(C)CC(C(=O)O)c1cc(-c2ccc(C(F)(F)F)cc2)cc(N(C)c2ccc(Cl)cc2)c1` (single isomer, unassigned) [Example 22, (S*)2-{5-[(4-Chloro-phenyl)-methyl-amino]-4′-trifluoromethyl-biphenyl-3-yl}-4-methyl-pentanoic acid], the EC50 turned out to be 2150 nM. Compared with the last compound, the EC50 is about 1.9-fold higher.

`CC(C)CCN(Cc1cc(-c2ccc(C(F)(F)F)cc2)cc([C@@H](CC(C)C)C(=O)O)c1)Cc1ccc(F)c(F)c1` (stereo in doubt) [Example 5, 2-(5-{[(3,4-Difluoro-benzyl)-(3-methyl-butyl)-amino]-methyl}-4′-trifluoromethyl-biphenyl-3-yl)-4-methyl-pentanoic acid] came in with a concentration for a half-maximal effect (EC50) of 65 nM.

For `CC(C)CC(C(=O)O)c1cc(-c2ccc(C(F)(F)F)cc2)cc(N2CCCc3ccc(C(F)(F)F)cc32)c1` (stereo not drawn) [Compound 26, 4-Methyl-2-[4′-trifluoromethyl-5-(7-trifluoromethyl-3,4-dihydro-2H-quinolin-1-yl)-biphenyl-3-yl]-pentanoic acid], the half-maximal effective concentration (EC50) was determined as 360 nM.

Compound `CC(C)CC(C(=O)O)c1cc(-c2ccc(Cl)c(C(F)(F)F)c2)cc(N(C)c2cc(C(F)(F)F)cc(C(F)(F)F)c2)c1` (stereo not drawn) [Compound 27, 2-[4′-Chloro-5-(N-[3,5-bis-(trifluoromethyl)phenyl]-N-methylamino)-3′-trifluoromethyl-biphenyl-3-yl]-4-methyl-pentanoic acid] had a concentration giving a half-maximal response (EC50) of 480 nM.

In the case of `CC(C)CCC(Nc1cc(-c2ccc(C(F)(F)F)cc2)cc(C(CC(C)C)C(=O)O)c1)c1cc(F)cc(F)c1` (stereo not drawn) [Compound 29, 2-{5-[1-(3,5-Difluoro-phenyl)-4-methyl-pentylamino]-4′-trifluoromethyl-biphenyl-3-yl}-4-methyl-pentanoic acid], the midpoint of the response, the EC50, lay at 300 nM.

`CC(C)CCC(Nc1cc(-c2ccc(C(F)(F)F)cc2)cc(C(CC(C)C)C(=O)O)c1)c1cc(C(F)(F)F)cc(C(F)(F)F)c1` (stereo not drawn) [Compound 30, 2-{5-[1-(3,5-Bis-trifluoromethyl-phenyl)-4-methyl-pentylamino]-4′-trifluoromethyl-biphenyl-3-yl}-4-methyl-pentanoic acid] came in with an EC50 of 220 nM.

`CC(C)CCC(Nc1cc(-c2ccc(C(F)(F)F)cc2)cc(C(CC(C)C)C(=O)O)c1)c1ccc(C(F)(F)F)cc1` (stereo not drawn) [Compound 31, 4-Methyl-2-{5-[4-methyl-1-(4-trifluoromethyl-phenyl)-pentylamino]-4′-trifluoromethyl-biphenyl-3-yl}-pentanoic acid]: the midpoint of the response, the EC50, lay at 270 nM.

The compound `CC(C)CCC(Nc1cc(-c2ccc(C(F)(F)F)cc2)cc(C(CC(C)C)C(=O)O)c1)c1cc(F)c(F)c(F)c1` (stereo not drawn) [Compound 38, 4-Methyl-2-{5-[4-methyl-1-(3,4,5-trifluoro-phenyl)-pentylamino]-4′-trifluoromethyl-biphenyl-3-yl}-pentanoic acid] displayed an EC50 of 230 nM. This EC50 and that of the compound before are within 1.5-fold of each other.

Compound `CC(C)CCN(Cc1ccc(C(C)(C)C)cc1)c1cc(-c2ccc(C(F)(F)F)cc2)cc(C(CC(C)C)C(=O)O)c1` (stereo not drawn) [Compound 39, 2-{5-[(4-tert-Butyl-benzyl)-(3-methyl-butyl)-amino]-4′-trifluoromethyl-biphenyl-3-yl}-4-methyl-pentanoic acid] yielded a concentration giving a half-maximal response (EC50) of 580 nM.

On to `CC(C)CCN(Cc1cc(F)cc(F)c1)c1cc(-c2ccc(C(F)(F)F)cc2)cc([C@@H](CC(C)C)C(=O)O)c1` [Compound 40, 2-{5-[(3,5-Difluoro-benzyl)-(3-methyl-butyl)-amino]-4′-trifluoromethyl-biphenyl-3-yl}-4-methyl-pentanoic acid], for which a half-maximal response (EC50) required 190 nM.

For `CC(C)CCN(Cc1ccc(OC(F)(F)F)cc1)c1cc(-c2ccc(C(F)(F)F)cc2)cc([C@@H](CC(C)C)C(=O)O)c1` [Compound 42, (R) 4-Methyl-2-{5-[(3-methyl-butyl)-(4-trifluoromethoxy-benzyl)-amino]-4′-trifluoromethyl-biphenyl-3-yl}-pentanoic acid], the concentration for a half-maximal effect (EC50) amounted to 640 nM. This EC50 lies about 3.4-fold higher than the previous one.

The compound `CC(C)CCN(Cc1ccc(C(F)(F)F)cc1)c1cc(-c2ccc(C(F)(F)F)cc2)cc(C(CC(C)C)C(=O)O)c1` (stereo not drawn) [Compound 45, 4-Methyl-2-{5-[(3-methyl-butyl)-(4-trifluoromethyl-benzyl)-amino]-4′-trifluoromethyl-biphenyl-3-yl}-pentanoic acid] registered a half-maximal effective concentration (EC50) of 580 nM.

On to `CC(C)CCN(Cc1cc(C(F)(F)F)cc(C(F)(F)F)c1)c1cc(-c2ccc(C(F)(F)F)cc2)cc([C@@H](CC(C)C)C(=O)O)c1` [Compound 49, (R) 2-{5-[(3,5-Bis-trifluoromethyl-benzyl)-(3-methyl-butyl)-amino]-4′-trifluoromethyl-biphenyl-3-yl}-4-methyl-pentanoic acid], for which the EC50 amounted to 220 nM.

In the case of `CC(C)CC(C(=O)O)c1cc(NCc2ccc(F)cc2C(F)(F)F)cc(-c2ccc(C(F)(F)F)cc2)c1` (stereo not drawn) [Compound 51, 2-(5-(4-fluoro-2-(trifluoromethyl)benzylamino)-4′-(trifluoromethyl)biphenyl-3-yl)-4-methylpentanoic acid], a half-maximal response (EC50) required 640 nM. This EC50 lies about 2.9-fold higher than the previous one.

On to `CC(C)CCN(Cc1cc(-c2ccc(C(F)(F)F)cc2)cc(C(CC(C)C)C(=O)O)c1)Cc1cc(F)c(F)c(F)c1` (stereo not drawn) [Compound 54, 4-Methyl-2-(5-{[(3-methyl-butyl)-(3,4,5-trifluoro-benzyl)-amino]-methyl}-4′-trifluoromethyl-biphenyl-3-yl)-pentanoic acid], for which the concentration giving a half-maximal response (EC50) came to 270 nM.

As usually defined, the inhibition is the drop in the measured response relative to a control, in per cent. The term EC50 denotes the concentration giving half of the maximal effect.

The record behind these values is patent publication US8247610B2, “Amine linked modulators of γ-secretase” (Janssen Pharmaceutica N.V., priority 2007, dated 2012).
